Measurements reported in patent US20220372013A2, “PIPERIDINE-2,6-DIONE DERIVATIVES AND CROHN'S DISEASE TREATING” (Tianjin Hemay Pharmaceutical Sci-Tech Co., Ltd, priority 2016, published 2022).
Values joined by “and” are separate entries in the source; they are usually repeats but may differ in a detail not shown here. Identical values can stand only once.

Tested on: mice
Assay: Biological Example 5: acute toxicity experiment of single oral administration in mice
Type: in vivo
Settings: single oral 1000 mg/Kg, Mean ± SD
Method: The mice were fasted one day before the experiment. On the day of the experiment, 6 mice (ICR mice, body weight of 19-21 g, three females and three males) were selected in each experiment group. First of all, one female and one male were selected to orally give 1000 mg/Kg, and observed for 5-10 minutes. If there were no obvious side effects, the remaining 4 animals were orally given the same dose, and observed for 10-15 minutes. If no animal died, the animals were placed in a box to balancedly feed for 7 days. The state was observed and the body weight was recorded daily.
Observation Indexes within 0-15 Minutes after Administration
Activity: restlessness, hyperactivity
Nervous system response: tremor, spasm, convulsion, ataxia, posture abnormality, etc.
Autonomic nerve: exophthalmos, salivation, tears, urination (hematuria), diarrhea, piloerection, breathing, etc.
State of Animal: lethargy, hyperactivity, excitement, hair loss, diarrhea, abnormal behavior, death, etc.

Row | Compound | Daily Body Weight (Female mice, Day 1) [g] | Daily Body Weight (Female mice, Day 2) [g] | Daily Body Weight (Female mice, Day 3) [g] | Daily Body Weight (Female mice, Day 4) [g] | Daily Body Weight (Female mice, Day 5) [g] | Daily Body Weight (Female mice, Day 6) [g] | Daily Body Weight (Female mice, Day 7) [g] | Daily Body Weight (Male mice, Day 1) [g] | Daily Body Weight (Male mice, Day 2) [g] | Daily Body Weight (Male mice, Day 3) [g] | Daily Body Weight (Male mice, Day 4) [g] | Daily Body Weight (Male mice, Day 5) [g] | Daily Body Weight (Male mice, Day 6) [g] | Daily Body Weight (Male mice, Day 7) [g] | also measured
1 | COCCCN1C(=O)CCC(N2C(=O)c3cccc(F)c3C2=O)C1=O (stereo not drawn) [Example 17, 4-fluoro-2-(1-(3-methoxypropyl)-2,6-dioxopiperidin-3-yl)isoindolin-1,3-dione] | 18.6 ± 1.0 | 21.9 ± 0.4 | 22.7 ± 0.4 | 22.7 ± 0.4 | 23.0 ± 0.4 | 23.1 ± 1.0 | 22.7 ± 1.2 | 19.0 ± 0.7 | 24.0 ± 0.7 | 24.6 ± 0.8 | 24.6 ± 0.8 | 26.1 ± 0.7 | 28.1 ± 0.6 | 29.3 ± 1.0 | 
2 | CS(=O)(=O)CCN1C(=O)CCC(N2C(=O)c3cccc(N)c3C2=O)C1=O (stereo not drawn) [Example 13, 4-amino-2-(1-(2-methylsulfonylethyl)-2,6-dioxopiperidin-3-yl)isoindolin-1,3-dione] | 18.8 ± 1.1 | 21.3 ± 0.3 | 21.8 ± 0.4 | 21.8 ± 0.4 | 23.0 ± 0.5 | 23.2 ± 0.9 | 23.6 ± 0.9 | 19.6 ± 0.7 | 23.1 ± 0.6 | 24.4 ± 0.9 | 24.4 ± 0.9 | 26.5 ± 0.5 | 28.3 ± 1.3 | 28.4 ± 0.8 | 
3 | COCCN1C(=O)CCC(N2C(=O)c3cccc(NC(C)=O)c3C2=O)C1=O (stereo not drawn) [Example 1, 4-acetylamino-2-(1-(2-methoxyethyl)-2,6-dioxopiperidin-3-yl)isoindolin-1,3-dione] | 18.5 ± 0.1 | 22.8 ± 0.3 | 23.2 ± 0.7 | 24.0 ± 0.2 | 25.3 ± 1.6 | 25.7 ± 1.6 | 27.1 ± 1.1 | 20.1 ± 1.4 | 23.8 ± 1.4 | 24.9 ± 1.0 | 26.3 ± 1.2 | 27.7 ± 1.3 | 29.2 ± 1.4 | 29.4 ± 1.4 | 
4 | COCCCN1C(=O)CCC(N2C(=O)c3ccc(N)cc3C2=O)C1=O (stereo not drawn) [Example 18, 5-amino-2-(1-(3-methoxypropyl)-2,6-dioxopiperidin-3-yl)isoindolin-1,3-dione] | 18.4 ± 0.7 | 22.5 ± 0.8 | 23.8 ± 1.1 | 24.8 ± 1.5 | 24.8 ± 0.6 | 25.4 ± 0.7 | 25.2 ± 1.1 | 18.2 ± 0.4 | 23.0 ± 0.7 | 24.1 ± 0.4 | 25.6 ± 0.8 | 28.1 ± 1.1 | 29.0 ± 1.4 | 29.0 ± 1.0 | 
5 | CCOCCN1C(=O)CCC(N2C(=O)c3cccc(N)c3C2=O)C1=O (stereo not drawn) [Example 19, 4-amino-2-(1-(2-ethoxyethyl)-2,6-dioxopiperidin-3-yl)isoindolin-1,3-dione] | 18.0 ± 0.6 | 20.7 ± 1.1 | 21.3 ± 0.6 | 22.8 ± 0.3 | 23.2 ± 0.7 | 23.3 ± 1.2 | 23.0 ± 1.7 | 18.9 ± 1.2 | 20.7 ± 1.1 | 21.3 ± 0.6 | 25.0 ± 2.0 | 24.8 ± 1.9 | 26.5 ± 1.9 | 27.7 ± 2.2 | 
6 | COCCN1C(=O)CCC(N2C(=O)c3cccc(N(C)C)c3C2=O)C1=O (stereo not drawn) [Example 3, 4-dimethylamino-2-(1-(2-methoxyethyl)-2,6-dioxopiperidin-3-yl)isoindolin-1,3-dione] |  |  |  |  |  |  |  |  |  |  |  |  |  |  | Daily Body Weight (Female mice, Day 1, 1000 mg/kg): 18.3 ± 0.4 g and 18.8 ± 0.4 g; Daily Body Weight (Female mice, Day 2, 1000 mg/kg): 21.7 ± 0.2 g and 22.1 ± 1.2 g; Daily Body Weight (Female mice, Day 3, 1000 mg/kg): 22.3 ± 0.2 g and 22.7 ± 0.8 g; Daily Body Weight (Female mice, Day 4, 1000 mg/kg): 22.6 ± 0.8 g and 23.0 ± 1.4 g; Daily Body Weight (Female mice, Day 5, 1000 mg/kg): 23.0 ± 1.4 g and 23.7 ± 1.9 g; Daily Body Weight (Female mice, Day 6, 1000 mg/kg): 22.6 ± 1.3 g and 24.1 ± 1.2 g; Daily Body Weight (Female mice, Day 7, 1000 mg/kg): 22.7 ± 0.4 g and 24.4 ± 1.8 g; Daily Body Weight (Male mice, Day 1, 1000 mg/kg): 18.8 ± 0.7 g and 18.0 ± 0.2 g; Daily Body Weight (Male mice, Day 2, 1000 mg/kg): 23.3 ± 0.1 g and 22.9 ± 0.3 g; Daily Body Weight (Male mice, Day 3, 1000 mg/kg): 24.3 ± 0.1 g and 24.3 ± 0.9 g; Daily Body Weight (Male mice, Day 4, 1000 mg/kg): 25.6 ± 0.7 g and 25.2 ± 1.1 g; Daily Body Weight (Male mice, Day 5, 1000 mg/kg): 26.9 ± 0.8 g and 27.0 ± 1.3 g; Daily Body Weight (Male mice, Day 6, 1000 mg/kg): 27.9 ± 0.9 g and 28.2 ± 1.9 g; Daily Body Weight (Male mice, Day 7, 1000 mg/kg): 28.6 ± 0.4 g and 28.5 ± 2.7 g
7 | CCOCCN1C(=O)CCC(N2C(=O)c3cccc(F)c3C2=O)C1=O (stereo not drawn) [Example 20, 4-fluoro-2-(1-(2-ethoxyethyl)-2,6-dioxopiperidin-3-yl)isoindolin-1,3-dione] | 18.7 ± 0.4 | 21.6 ± 1.0 | 22.1 ± 1.0 | 22.1 ± 1.0 | 23.0 ± 1.4 | 23.3 ± 0.2 | 23.7 ± 0.8 | 18.8 ± 1.0 | 24.0 ± 1.1 | 25.3 ± 1.2 | 25.3 ± 1.2 | 26.7 ± 1.2 | 29.0 ± 1.1 | 29.3 ± 0.7 | 
8 | COCCN1C(=O)CCC(N2C(=O)c3ccc(F)c(N)c3C2=O)C1=O (stereo not drawn) [Example 9, 4-amino-5-fluoro-2-(1-(2-methoxyethyl)-2,6-dioxopiperidin-3-yl)isoindolin-1,3-dione] | 17.5 ± 0.6 | 22.1 ± 0.9 | 22.1 ± 0.7 | 22.8 ± 0.8 | 22.8 ± 1.0 | 22.7 ± 1.6 | 23.6 ± 1.7 | 18.3 ± 0.7 | 23.6 ± 0.7 | 24.1 ± 1.0 | 25.9 ± 1.1 | 27.2 ± 0.5 | 26.9 ± 1.4 | 27.9 ± 1.5 | 
9 | CSCCN1C(=O)CCC(N2C(=O)c3cccc(N)c3C2=O)C1=O (stereo not drawn) [Example 11, 4-amino-2-(1-(2-methylthioethyl)-2,6-dioxopiperidin-3-yl)isoindolin-1,3-dione] | 18.1 ± 0.2 | 21.7 ± 0.2 | 22.4 ± 0.1 | 22.4 ± 0.1 | 23.5 ± 0.4 | 23.2 ± 0.8 | 23.2 ± 0.9 | 19.5 ± 0.6 | 23.7 ± 0.8 | 25.4 ± 0.4 | 25.4 ± 0.4 | 27.0 ± 0.5 | 29.0 ± 0.7 | 29.8 ± 1.0 | 
